Test results published in patent US20100160293A1, “Solid Ophthalmic Drug for External Use” (priority 2005, published 2010).
Where a name gives a salt, the structure may show the parent alone.

Assay: SKIN-CAD simulation of ketotifen fumarate concentration profile in conjunctiva
Set-up: species or system rabbit
Details: simulation parameter
Description: The above data were fed into SKIN-CAD (Biocom Systems, Inc., Fukuoka, Japan), a software for analysis of skin permeation of drugs, together with the parameters for hairless mouse skin permeation and parameters for rabbit tear fluid kinetics, to simulate a ketotifen fumarate concentration profile in rabbit's conjunctiva.
According to references, the rate of uptake of absorbed drugs by the subvascular tissues in normal capillary vessels is around 3-5% (K. Tojo, Mathematical models of transdermal and topical drug delivery, 2nd edition, Biocom Systems, Fkuoka, Japan, 2005), and the above transfer rate of 3% (i.e., the rate of uptake into the tear fluid) almost agrees with this. Based on this rate of uptake (3%), the profile of drug concentration in the conjunctiva was simulated again, this time on the assumption that the solid pharmaceutical preparation was rubbed on the skin only once, not ten times, by replacing the parameter for drug thickness in SKIN-CAD with 1/10 of the value in the above test, i.e., with 0.005 cm.
As to the concentration of the drug in the conjunctiva, the results of the above test where the solid pharmaceutical preparation was applied (Table 10, 10 times application) and a graph produced by SKIN-CAD in agreement with the results, the data after the above topical instillation (Table 13), and the result of the simulation by SKIN-CAD where the solid pharmaceutical preparation was rubbed only once (1 time application) are shown together in FIG. 9.

[1] = rabbit tear fluid pharmacokinetics

CN1CCC(=C2c3ccccc3CC(=O)c3sccc32)CC1 [ketotifen fumarate]
Absorption Rate Constant into Blood: 0.04 s⁻¹
Device/Skin Partition Coefficient (device design): 5.80 × 10^−2
Diffusion Coefficient in Device (device design): 1.97 × 10^−9 cm^2/sec
Diffusion Coefficient in Stratum Corneum (hairless mouse skin permeation): 1.12 × 10^−11 cm^2/sec
Diffusion Coefficient in Viable Skin (hairless mouse skin permeation): 3.75 × 10^−7 cm^2/sec
Stratum Corneum/Viable Skin Partition Coefficient (hairless mouse skin permeation): 2.47 × 10^2
Elimination Rate Constant, K10 [1]: 0.00385 s⁻¹
Volume of Distribution, V1 [1]: 0.008 mL
